Structures are written as SMILES.

For orientation: melting point means the temperature, or range, at which the solid turns liquid. In turn, `CCOC(=O)c1sc(-c2cc3cccc(NS(=O)(=O)c4cccs4)c3[nH]2)nc1C` registered a melting point of 226 to 228 °C.

The compound `Cc1cc(-c2cc(C(F)(F)F)n3nccc3n2)ccc1Cl` came in with a melting point of 114 °C.

For `N=C(Nc1ccccc1-c1ccccc1)N1CCOCC1`, the melting point fell in the range of 153 to 154 °C.

`CN1CCN(C)C(c2ccc([N+](=O)[O-])cc2)C1=O` (centres undefined): the melting point lay within 99 to 102 °C.

For `COc1ccc2c(c1)CCC1CCNC(=O)C(CNC(C)C)=C21` (centres undefined), the melting point fell in the range of 212 to 214 °C.

Consider `CC(C)c1nccn1N=Cc1cc(C(C)(C)C)c(O)c(C(C)(C)C)c1`, for which the melting point was 159 to 160 °C.

With `O=[N+]([O-])c1ccc(Cl)c(C2OCCO2)c1`, the melting point was 78 to 81 °C.

Take `CC1(C)CC(=O)CC(C)(C)N1SSSSN1C(C)(C)CC(=O)CC1(C)C`: the melting point was in the range of 148 to 150 °C.

`CCOC(=O)c1cc(=O)c2c(OCC(O)COc3ccc(CC)cc3)cccc2o1` (centres undefined) displayed a melting point of 80 to 85 °C.

Consider `CCOC(=O)c1ccc2c(c1)C(=O)c1nc3ccccc3c(=O)n1-2`, for which the melting point lay in the range of 270 to 273 °C.

As to `CC(=O)NC[C@H]1CN(c2ccc(N3CCC4(CC3)COCCO4)c(F)c2)C(=O)O1`, the melting point was in the range of 114 to 116 °C.

`CC(C)C1=NC(c2ccccc2)=NC(c2ccc(F)cc2)C1=CO` (centres undefined) had a melting point of 183 to 184 °C.

Consider `CCO[C@@H](Cc1ccc(O)cc1)C(=O)O`, for which the melting point worked out at 105 °C.

On to `CC(C)(C)C(=O)Nc1ccc(Cl)cc1C(=O)C[C@H]1C(=O)OCN1C(=O)OCc1ccccc1`, for which the melting point lay in the range of 113 to 116 °C.

In the case of `CCCCCCCNC(=O)Nc1ccc(NC(=O)NCCCC)cc1C(=O)NC1CCN(C(c2ccccc2)c2ccccc2)CC1`, the melting point fell in the range of 209 to 211 °C.

With `C=CCON=C(CC)C1=C(OCc2ccccc2)CC(C)(C)CC1=O`, the melting point was 60.5 to 61.5 °C.

Consider `Cc1nc(N)nc(N)c1-c1cc(Cl)cc(Cl)c1`, for which the melting point lay in the range of 242 to 244 °C.

`CNC(=O)c1ccc(Nc2cc(-n3ccc(C(F)(F)F)n3)c3ccccc3n2)cc1` registered a melting point of 250 to 252 °C.

`Cc1cc(OC2CCN(CCNC(=O)c3ccc(S(C)(=O)=O)cc3)CC2)ccc1Cl`: the melting point lay within 123 to 124 °C.

For the compound `N#CC(C(=O)C(=O)C(C#N)c1ccc(Cl)cc1)c1ccc(Cl)cc1` (centres undefined), the melting point worked out at 255 °C.

In turn, `CCOC(=O)CCN1CCN(C2=Nc3ccccc3Sc3ccc(Cl)cc32)CC1` came in with a melting point of 79 to 80 °C.

Compound `CCCc1nc(SC)nc(O)c1Cc1ccc(-c2ccccc2C#N)cc1` yielded a melting point of 218 °C.

`CN(Cc1ccccc1)C(=O)Cn1nc(-c2ccccc2O)nc1-c1ccccc1O` gave a melting point of 179 to 180 °C.

In the case of `CC(=O)NCc1cccc(C#N)c1`, the melting point fell in the range of 94 to 96 °C.

Compound `CN(C(=O)CCS)c1nnc(-c2cccnc2)s1` displayed a melting point of 149 to 151 °C.

Regarding `COc1ccccc1N1CCN(C[C@@H](CC2CCCCC2)NC(=O)C2(C)CCCCC2)CC1`, the melting point lay in the range of 119 to 121 °C.

On to `Cn1nc(-c2ccc(Cl)cc2)c2ccccc2c1=O`, for which the melting point fell in the range of 151 to 152 °C.

As to `Clc1cccc(NNc2cccc(Cl)c2)c1`, the melting point was 116 °C.

Compound `CCOC(=O)CNC(=O)c1ccc(-c2ccc([N+](=O)[O-])cc2)cc1` yielded a melting point of 145 to 148 °C.

Take `Cn1cc(C(O)c2ccncc2)cc1C(=O)c1ccc(Cl)cc1` (centres undefined): the melting point is 145 to 146 °C.

For `O=c1oc(-c2ccccc2)cc(O)c1SCC1CCCCC1`, the melting point was 141 to 143 °C.

Compound `CCCCc1nc(Cl)c(C(=O)NC)n1Cc1ccc2oc(-c3ccccc3NS(=O)(=O)C(F)(F)F)c(Br)c2c1` had a melting point of 89 to 92 °C.

`Cn1nc(-c2c(F)cccc2Cl)nc1-c1ccc(OCc2ccc(C(F)(F)F)cc2F)c(Cl)c1`: the melting point is 109 to 111 °C.

Regarding `CCC1(Br)Cc2cc(OCC(=O)O)c(Cl)c(Cl)c2C1=O` (centres undefined), the melting point lay in the range of 189 to 191 °C.
